Test results taken from patent US8916555B2, “3,5-diaminopyrazole kinase inhibitors” (Axikin Pharmaceuticals, Inc., priority 2012, dated 2014).

Target: T1, kinase domain protein of RC kinase (Homo sapiens, UniProt Q56UN5)
T1 sequence (Q56UN5 1061-1324 limits assumed): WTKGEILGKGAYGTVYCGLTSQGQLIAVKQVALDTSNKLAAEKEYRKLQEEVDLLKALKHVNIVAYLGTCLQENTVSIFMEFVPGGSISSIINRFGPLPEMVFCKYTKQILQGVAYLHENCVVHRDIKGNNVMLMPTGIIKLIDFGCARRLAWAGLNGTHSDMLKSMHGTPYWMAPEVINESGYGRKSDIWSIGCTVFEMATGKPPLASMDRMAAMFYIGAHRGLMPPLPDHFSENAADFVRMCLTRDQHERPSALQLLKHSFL
Assay: Enzymatic assay for kinase inhibitory activity (Crebtide substrate, LANCE readout), kinase domain protein
Assay type: biochemical
Conditions: test compound 1 μM, ATP 1 μM, Crebtide 50 nM
Experimental: Solutions of a test compound, Crebtide (a substrate), a kinase, and ATP were prepared using 1×MAPK Buffer (50 mM HEPES, 1 mM EGTA, […], 10 mM MgCl2, 2 mM DTT, and 0.01% Tween 20).
To each well, the test compound (1 μL) was first added (in duplicate) to reach a final concentration of 1 μM or 1×IC50 of the compound. The kinase (5 μL) was then added to each well to reach a final concentration of […] for the kinase domain or […] for the full-length domain. Each plate included a positive and negative controls in duplicate wells. Crebtide (2.5 μL) was then added to each well in duplicate to reach a final concentration of 50 nM. If the full-length kinase was used, the plates were incubated for 45 min at room temperature before proceeding further. ATP (2.5 μL) was added to each well to reach a final concentration of 1 μM for the kinase domain and 3 μM for the full-length.
After the addition of ATP, the plates were incubated for 45 min at room temperature. During the incubation, an EDTA solution (40 mM) and anti-Crebtide ([…]) were prepared. Additionally, a detection buffer stock solution was diluted ten fold before use.
After the incubation, the anti-Crebtide (5 μL) and EDTA (5 μL) were added to each well to reach their final concentrations of […] and 10 mM, respectively. The plates were allowed to develop at room temperature for 45 min. The plates were then read at 665 nm and 615 nm using Perkin Elmer Lance machine.
The biological results of inhibition of the kinase domain protein of RC kinase are summarized in Tables 2 and 3, wherein A represents at least 50% inhibition of the RC kinase activity at 1 μM; B represents no greater than 50% but at least 20% inhibition of the RC kinase activity at 1 μM; C represents no greater than 20% but at least 5% inhibition of the RC kinase activity at 1 μM; and D represents no greater than 5% inhibition of the RC kinase activity at 1 μM.

Compound | inhibition at 1 µM [%] | Activity (inhibition of the RC kinase activity at 1 μM)
NC(=O)c1c(Nc2cccc(Cl)c2)n[nH]c1NCc1ccc(Cl)nc1 [Compound D6] | 5 to 20 | 
N#Cc1c(Nc2cccc(Cl)c2)n[nH]c1NCc1ccc(OCc2ccc(F)cc2)cc1 [Compound C6] | 20 to 50 | 
N#Cc1c(Nc2cccc(Cl)c2)n[nH]c1NCc1ccc(OC(F)F)c(O)c1 [Compound C17, 3-((3-chlorophenyl)amino)-5-((4-(difluoromethoxy)-3-hydroxybenzyl)amino)-1H-pyrazole-4-carbonitrile] | ≤ 5 | 
Cn1nc(C(F)(F)F)c(CNc2[nH]nc(Nc3cccc(Cl)c3)c2C#N)c1Cl [Compound C9] | ≤ 5 | 
N#Cc1c(Nc2cccc(Cl)c2)n[nH]c1NCc1ccc(-c2ccc(Cl)cc2)o1 [Compound C12] | ≤ 5 | 
COc1ccc(C(F)(F)F)cc1CNc1[nH]nc(Nc2cccc(Cl)c2)c1C#N [Compound C14] | ≤ 5 | 
COc1cccc(C(=O)Nc2ccc(Nc3n[nH]c(NCc4ccc(O)cc4)c3C(N)=O)cc2)c1 [Compound D145] |  | A (at least 50% inhibition of the RC kinase activity at 1 μM)
N#Cc1c(Nc2cccc(Cl)c2)n[nH]c1NCc1ccc(-n2cnc3ccccc32)cc1 [Compound C7] | 5 to 20 | 
N#Cc1c(Nc2cccc(Cl)c2)n[nH]c1NCc1c[nH]c2c(F)c(F)c(F)c(F)c12 [Compound C8] | 5 to 20 | 
N#Cc1c(Nc2cccc(Cl)c2)n[nH]c1NCc1nc(-c2ccccc2)[nH]c1Cl [Compound C11] | ≤ 5 | 
N#Cc1c(Nc2cccc(Cl)c2)n[nH]c1NCc1ccc(-n2cncn2)cc1 [Compound C20] | 5 to 20 | 
N#Cc1c(Nc2cccc(Cl)c2)n[nH]c1NCc1ccc(-c2ccccn2)s1 [Compound C16] | ≤ 5 | 
CN1CCN(c2ccc(CNc3[nH]nc(Nc4cccc(Cl)c4)c3C#N)cc2)CC1 [Compound C13] | ≤ 5 | 
NC(=O)c1c(Nc2cccc(Cl)c2)n[nH]c1NCc1ccc(Oc2ncccn2)cc1 [Compound D11, 3-((3-chlorophenyl)amino)-5-((4-(pyrimidin-2-yloxy)benzyl)amino)-1H-pyrazole-4-carboxamide] |  | A (at least 50% inhibition of the RC kinase activity at 1 μM)
Cc1cc(F)ccc1CNc1[nH]nc(Nc2cccc(Cl)c2)c1C#N [Compound C29, 3-((3-chlorophenyl)amino)-5-((4-fluoro-2-methylbenzyl)amino)-1H-pyrazole-4-carbonitrile] | 5 to 20 | 
N#Cc1c(Nc2cccc(Cl)c2)n[nH]c1NCc1ccc(Oc2nccc(C(F)(F)F)n2)cc1 [Compound C1, 3-((3-chlorophenyl)amino)-5-((4-((4-(trifluoromethyl)pyrimidin-2-yl)oxy)benzyl)amino)-1H-pyrazole-4-carbonitrile] | 5 to 20 | 
N#Cc1c(Nc2cccc(Cl)c2)n[nH]c1NCc1c(O)cccc1Cl [Compound C25] | 20 to 50 | 
N#Cc1c(Nc2cccc(Cl)c2)n[nH]c1NCc1cccnc1Cl [Compound C28, 3-((3-chlorophenyl)amino)-5-(((2-chloropyridin-3-yl)methyl)amino)-1H-pyrazole-4-carbonitrile] | ≤ 5 | 
Cc1ccc(CNc2[nH]nc(Nc3cccc(Cl)c3)c2C#N)c(O)c1 [Compound C30] | 5 to 20 | 
N#Cc1c(Nc2cccc(Cl)c2)n[nH]c1NCc1ccc(S(F)(F)(F)(F)F)cc1 [Compound C5, 3-((3-chlorophenyl)amino)-5-((4-pentafluorothiobenzyl)amino)-1H-pyrazole-4-carbonitrile] | 5 to 20 | 
N#Cc1c(Nc2cccc(Cl)c2)n[nH]c1NCc1ccc(OC(F)(F)F)c(F)c1 [Compound C10] | ≤ 5 | 
NC(=O)c1c(Nc2ccc(NC(=O)c3ccccc3OC(F)(F)F)cc2)n[nH]c1NCc1ccc(O)cc1 [Compound D147] |  | A (at least 50% inhibition of the RC kinase activity at 1 μM)
N#Cc1c(Nc2cccc(Cl)c2)n[nH]c1NCc1cccn1S(=O)(=O)c1ccccc1 [Compound C4] | 5 to 20 | 

More lines, main results first:

inhibition at 1 µM [%] | Compound | Activity (inhibition of the RC kinase activity at 1 μM)
≤ 5 | NC(=O)c1c(Nc2cccc(Cl)c2)n[nH]c1NCc1ccc(O)nc1 [Compound D86] | 
5 to 20 | NC(=O)c1c(Nc2cccc(Cl)c2)n[nH]c1NCc1ccc([N+](=O)[O-])cc1 [Compound D74, 3-((3-chlorophenyl)amino)-5-((4-nitrobenzyl)amino)-1H-pyrazole-4-carboxamide] | 
≤ 5 | NC(=O)c1c(Nc2cccc(Cl)c2)n[nH]c1NCc1c[nH]nc1-c1ccc(F)cc1 [Compound D166] | 
20 to 50 | NC(=O)c1c(Nc2cccc(Cl)c2)n[nH]c1NCc1cccn1S(=O)(=O)c1ccccc1 [Compound D18, 3-((3-chlorophenyl)amino)-5-(((1-(phenylsulfonyl)-1H-pyrrol-2-yl)methyl)amino)-1H-pyrazole-4-carboxamide] | 
≤ 5 | COc1ncc(CNc2[nH]nc(Nc3cccc(Cl)c3)c2C(N)=O)cn1 [Compound D87] | 
20 to 50 | NC(=O)c1c(NC2CCCCC2)n[nH]c1NCc1ccc(O)cc1 [Compound D133, 3-(cyclohexylamino)-5-((4-hydroxybenzyl)amino)-1H-pyrazole-4-carboxamide] | 
≥ 50 | NC(=O)c1c(Nc2ccc(-n3cccn3)cc2)n[nH]c1NCc1ccc(O)cc1 [Compound D79, 3-((4-(1H-pyrazol-1-yl)phenyl)amino)-5-((4-hydroxybenzyl)amino)-1H-pyrazole-4-carboxamide] | 
≥ 50 | NC(=O)c1c(Nc2ccc(CN3CCOCC3)cc2)n[nH]c1NCc1ccc(O)cc1 [Compound D134, 5-((4-hydroxybenzyl)amino)-3-((4-(morpholinomethyl)phenyl)amino)-1H-pyrazole-4-carboxamide] | 
≥ 50 | NC(=O)c1c(Nc2ccc(Cc3ccccc3)cc2)n[nH]c1NCc1ccc(O)cc1 [Compound D83, 3-((4-benzylphenyl)amino)-5-((4-hydroxybenzyl)amino)-1H-pyrazole-4-carboxamide] | 
≤ 5 | NC(=O)c1c(Nc2cccc(Cl)c2)n[nH]c1NCc1c[nH]c2c(F)c(F)c(F)c(F)c12 [Compound D22, 3-((3-chlorophenyl)amino)-5-(((4,5,6,7-tetrafluoro-1H-indol-3-yl)methyl)amino)-1H-pyrazole-4-carboxamide] | 
20 to 50 | CC1CCN(C2CCN(c3n[nH]c(NCc4ccc(O)cc4)c3C(N)=O)CC2)CC1 [Compound D88] | 
≥ 50 | NC(=O)c1c(Nc2ccc(-c3cc[nH]n3)cc2)n[nH]c1NCc1ccc(O)cc1 [Compound D84] | 
5 to 20 | Cc1cc(C)cc(CNc2[nH]nc(Nc3cccc(Cl)c3)c2C(N)=O)c1 [Compound D78] | 
20 to 50 | Cc1cc(CNc2[nH]nc(Nc3cccc(Cl)c3)c2C(N)=O)cc(C)c1O [Compound D8] | 
20 to 50 | Cc1ccc(S(=O)(=O)Nc2ccc(Nc3n[nH]c(NCc4ccc(O)cc4)c3C(N)=O)cc2)cc1 [Compound D136, 5-((4-hydroxybenzyl)amino)-3-((4-(4-methylphenylsulfonamido)phenyl)amino)-1H-pyrazole-4-carboxamide] | 
5 to 20 | COc1cc(OC)c(OC)cc1CNc1[nH]nc(Nc2cccc(Cl)c2)c1C(N)=O [Compound D58] | 
≥ 50 | COc1ccc(C(=O)Nc2ccc(Nc3n[nH]c(NCc4ccc(O)cc4)c3C(N)=O)cc2)cc1OC [Compound D129] | 
